In the kinase profiling compilation of Christmann-Franck et al. (2016):

Legend:
Experiment in all cases: radiometric filter-binding kinase assay, Kinase HotSpot
Conditions in all cases: compound 0.5 µM; ATP 10 µM
ABL2 (human) = ABL2 (human) (UniProt P42684)
ACVRL1 (human) = ACVRL1 (human) (UniProt P37023)
AKT1 (human) = AKT1 (human) (UniProt P31749)
BRSK1 (human) = BRSK1 (human) (UniProt Q8TDC3)
CAMK2A (human) = CAMK2A (human) (UniProt Q9UQM7)
CAMK2B (human) = CAMK2B (human) (UniProt Q13554)
CDK2 CCNA2 (human) = CDK2 CCNA2 (human) (UniProt P24941+P20248)
CLK1 (human) = CLK1 (human) (UniProt P49759)
DSTYK (human) = DSTYK (human) (UniProt Q6XUX3)
DYRK2 (human) = DYRK2 (human) (UniProt Q92630)
DYRK4 (human) = DYRK4 (human) (UniProt Q9NR20)
DYRK4 (human), sequence (Q9NR20 whole entry, looked up): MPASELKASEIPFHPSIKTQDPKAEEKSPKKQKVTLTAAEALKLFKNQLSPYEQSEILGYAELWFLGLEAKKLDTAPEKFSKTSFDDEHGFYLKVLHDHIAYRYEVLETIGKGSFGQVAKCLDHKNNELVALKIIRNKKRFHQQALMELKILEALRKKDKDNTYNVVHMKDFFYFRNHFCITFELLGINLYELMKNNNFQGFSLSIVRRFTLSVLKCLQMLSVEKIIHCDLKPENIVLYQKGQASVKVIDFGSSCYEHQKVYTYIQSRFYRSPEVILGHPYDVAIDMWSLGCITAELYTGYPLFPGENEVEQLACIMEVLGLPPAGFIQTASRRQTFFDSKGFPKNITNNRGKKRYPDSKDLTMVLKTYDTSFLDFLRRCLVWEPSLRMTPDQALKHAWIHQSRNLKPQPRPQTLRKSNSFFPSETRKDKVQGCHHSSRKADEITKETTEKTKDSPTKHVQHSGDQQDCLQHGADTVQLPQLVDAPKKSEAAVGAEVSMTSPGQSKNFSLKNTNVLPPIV

FGFR1 (human) = FGFR1 (human) (UniProt P11362)
FGFR3 (human) = FGFR3 (human) (UniProt P22607)
FGFR3 (human), sequence (P22607 whole entry, looked up): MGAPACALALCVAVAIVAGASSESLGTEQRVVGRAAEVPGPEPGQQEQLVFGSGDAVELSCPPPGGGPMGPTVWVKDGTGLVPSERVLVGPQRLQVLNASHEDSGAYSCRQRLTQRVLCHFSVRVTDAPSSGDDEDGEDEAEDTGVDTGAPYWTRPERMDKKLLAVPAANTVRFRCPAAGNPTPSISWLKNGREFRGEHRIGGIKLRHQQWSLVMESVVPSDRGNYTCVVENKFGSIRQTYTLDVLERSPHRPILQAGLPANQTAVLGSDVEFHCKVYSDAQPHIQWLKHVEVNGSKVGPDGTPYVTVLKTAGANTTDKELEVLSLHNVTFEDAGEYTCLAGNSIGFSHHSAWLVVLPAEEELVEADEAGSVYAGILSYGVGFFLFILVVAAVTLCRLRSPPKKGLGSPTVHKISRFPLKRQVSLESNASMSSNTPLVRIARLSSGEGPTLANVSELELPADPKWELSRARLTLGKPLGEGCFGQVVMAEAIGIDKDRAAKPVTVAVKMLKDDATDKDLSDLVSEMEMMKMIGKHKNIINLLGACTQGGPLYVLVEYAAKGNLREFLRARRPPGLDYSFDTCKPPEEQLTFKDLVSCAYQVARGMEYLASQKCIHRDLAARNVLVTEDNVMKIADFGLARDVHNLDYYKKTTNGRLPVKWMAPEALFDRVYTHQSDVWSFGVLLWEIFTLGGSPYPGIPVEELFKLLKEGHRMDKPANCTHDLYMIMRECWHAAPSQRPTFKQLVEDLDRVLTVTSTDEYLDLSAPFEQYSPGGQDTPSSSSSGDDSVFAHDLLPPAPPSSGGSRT

[1] = test system: FLT4 (human), P35916 [Q890H]
FRK (human) = FRK (human) (UniProt P42685)
FRK (human), sequence (P42685 whole entry, looked up): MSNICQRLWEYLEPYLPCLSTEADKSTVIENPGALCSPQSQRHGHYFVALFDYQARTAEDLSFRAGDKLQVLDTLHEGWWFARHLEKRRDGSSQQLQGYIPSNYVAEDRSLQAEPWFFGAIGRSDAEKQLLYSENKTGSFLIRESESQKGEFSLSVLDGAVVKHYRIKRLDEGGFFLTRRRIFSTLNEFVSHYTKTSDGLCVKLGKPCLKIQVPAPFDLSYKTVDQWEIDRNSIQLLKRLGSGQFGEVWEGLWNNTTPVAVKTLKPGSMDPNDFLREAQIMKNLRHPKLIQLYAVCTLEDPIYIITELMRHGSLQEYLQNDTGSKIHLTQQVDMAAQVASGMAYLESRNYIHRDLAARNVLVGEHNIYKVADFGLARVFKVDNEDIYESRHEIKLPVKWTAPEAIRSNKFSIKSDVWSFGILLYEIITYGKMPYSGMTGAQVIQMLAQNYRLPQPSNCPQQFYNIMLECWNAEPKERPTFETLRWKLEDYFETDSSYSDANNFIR

FYN (human) = FYN (human) (UniProt P06241)
GRK7 (human) = GRK7 (human) (UniProt Q8WTQ7)
ITK (human) = ITK (human) (UniProt Q08881)
[2] = test system: MAP2K6 (human), P52564 [S207E/T211E]
MAP2K6 (human), P52564 [S207E/T211E], sequence (P52564 whole entry S207E/T211E, looked up): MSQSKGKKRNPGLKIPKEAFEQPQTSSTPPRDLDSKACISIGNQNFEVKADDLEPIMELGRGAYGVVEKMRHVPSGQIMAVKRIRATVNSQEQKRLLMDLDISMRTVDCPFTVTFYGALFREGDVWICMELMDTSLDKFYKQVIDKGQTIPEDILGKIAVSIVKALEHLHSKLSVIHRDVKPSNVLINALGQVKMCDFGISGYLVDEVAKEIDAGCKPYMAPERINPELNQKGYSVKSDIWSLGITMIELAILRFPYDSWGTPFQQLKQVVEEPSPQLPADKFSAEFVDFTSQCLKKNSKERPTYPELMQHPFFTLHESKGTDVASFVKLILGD

MAP3K5 (human) = MAP3K5 (human) (UniProt Q99683)
MAP4K5 (human) = MAP4K5 (human) (UniProt Q9Y4K4)
MAPK14 (human) = MAPK14 (human) (UniProt Q16539)
MAPK3 (human) = MAPK3 (human) (UniProt P27361)
MAPK8 (human) = MAPK8 (human) (UniProt P45983)
MERTK (human) = MERTK (human) (UniProt Q12866)
MINK1 (human) = MINK1 (human) (UniProt Q8N4C8)
NEK11 (human) = NEK11 (human) (UniProt Q8NG66)
NEK2 (human) = NEK2 (human) (UniProt P51955)
NUAK1 (human) = NUAK1 (human) (UniProt O60285)
PAK4 (human) = PAK4 (human) (UniProt O96013)
PAK7 (human) = PAK7 (human) (UniProt Q9P286)
PAK7 (human), sequence (Q9P286 whole entry, looked up): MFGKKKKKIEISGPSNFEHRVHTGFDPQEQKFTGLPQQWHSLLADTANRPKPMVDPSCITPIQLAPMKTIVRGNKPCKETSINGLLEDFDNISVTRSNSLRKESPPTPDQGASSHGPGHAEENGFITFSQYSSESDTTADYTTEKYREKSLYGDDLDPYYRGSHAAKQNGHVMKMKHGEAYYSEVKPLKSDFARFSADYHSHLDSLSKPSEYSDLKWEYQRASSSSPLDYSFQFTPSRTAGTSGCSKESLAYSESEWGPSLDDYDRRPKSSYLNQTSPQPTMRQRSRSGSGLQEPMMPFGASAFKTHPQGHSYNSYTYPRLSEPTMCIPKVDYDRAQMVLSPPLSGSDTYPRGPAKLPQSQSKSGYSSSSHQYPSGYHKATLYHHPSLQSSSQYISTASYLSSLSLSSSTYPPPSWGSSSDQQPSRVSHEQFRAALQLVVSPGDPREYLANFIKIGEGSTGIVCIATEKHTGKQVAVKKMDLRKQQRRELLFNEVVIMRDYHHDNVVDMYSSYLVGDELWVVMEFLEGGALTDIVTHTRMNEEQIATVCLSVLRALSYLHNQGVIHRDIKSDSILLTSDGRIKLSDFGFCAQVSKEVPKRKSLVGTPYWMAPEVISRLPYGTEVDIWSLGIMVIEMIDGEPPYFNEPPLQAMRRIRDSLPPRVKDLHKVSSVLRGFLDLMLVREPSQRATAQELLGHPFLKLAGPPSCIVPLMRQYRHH

PHKG1 (human) = PHKG1 (human) (UniProt Q16816)
PHKG1 (human), sequence (Q16816 whole entry, looked up): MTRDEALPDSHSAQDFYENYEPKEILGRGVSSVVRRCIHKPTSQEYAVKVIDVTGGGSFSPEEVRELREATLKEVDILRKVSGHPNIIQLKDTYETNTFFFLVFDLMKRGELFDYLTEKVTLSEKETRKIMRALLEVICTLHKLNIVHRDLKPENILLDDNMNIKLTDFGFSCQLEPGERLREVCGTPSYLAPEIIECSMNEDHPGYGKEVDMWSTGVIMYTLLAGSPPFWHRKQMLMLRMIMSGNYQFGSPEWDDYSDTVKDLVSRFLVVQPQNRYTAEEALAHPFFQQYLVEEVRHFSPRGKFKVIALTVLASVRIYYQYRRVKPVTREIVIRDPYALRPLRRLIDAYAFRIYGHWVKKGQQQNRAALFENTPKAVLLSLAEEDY

PTK2B (human) = PTK2B (human) (UniProt Q14289)
ROCK2 (human) = ROCK2 (human) (UniProt O75116)
RPS6KA6 KD1 KD2 (human) = RPS6KA6 KD1 KD2 (human) (UniProt Q9UK32)
STK10 (human) = STK10 (human) (UniProt O94804)
STK10 (human), sequence (O94804 whole entry, looked up): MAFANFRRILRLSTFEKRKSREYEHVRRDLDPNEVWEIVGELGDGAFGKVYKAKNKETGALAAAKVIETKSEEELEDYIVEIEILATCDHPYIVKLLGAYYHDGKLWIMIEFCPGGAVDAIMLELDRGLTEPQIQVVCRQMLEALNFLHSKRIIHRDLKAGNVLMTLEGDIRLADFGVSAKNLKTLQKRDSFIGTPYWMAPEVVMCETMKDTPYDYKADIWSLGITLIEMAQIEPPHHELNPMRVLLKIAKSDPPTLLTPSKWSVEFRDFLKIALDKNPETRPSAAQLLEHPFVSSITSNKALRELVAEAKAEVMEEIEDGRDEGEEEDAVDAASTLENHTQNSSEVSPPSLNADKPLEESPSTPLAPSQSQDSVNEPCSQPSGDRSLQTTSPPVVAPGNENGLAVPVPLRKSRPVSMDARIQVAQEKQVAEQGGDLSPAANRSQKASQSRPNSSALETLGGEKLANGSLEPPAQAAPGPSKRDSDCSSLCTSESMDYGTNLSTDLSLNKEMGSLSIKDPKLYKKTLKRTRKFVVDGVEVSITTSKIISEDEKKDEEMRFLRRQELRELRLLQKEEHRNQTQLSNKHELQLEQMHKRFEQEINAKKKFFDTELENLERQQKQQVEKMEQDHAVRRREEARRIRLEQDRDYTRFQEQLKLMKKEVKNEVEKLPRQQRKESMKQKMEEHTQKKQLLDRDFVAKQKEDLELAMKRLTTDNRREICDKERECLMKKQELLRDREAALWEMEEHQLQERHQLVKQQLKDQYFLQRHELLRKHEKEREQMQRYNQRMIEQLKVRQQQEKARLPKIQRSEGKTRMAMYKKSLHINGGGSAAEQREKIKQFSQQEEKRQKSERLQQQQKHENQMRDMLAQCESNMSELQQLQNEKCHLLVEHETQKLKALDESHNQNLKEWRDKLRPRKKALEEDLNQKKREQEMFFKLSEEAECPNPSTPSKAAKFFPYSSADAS

STK11 (human) = STK11 (human) (UniProt Q15831)
STK24 (human) = STK24 (human) (UniProt Q9Y6E0)
STK24 (human), sequence (Q9Y6E0 whole entry, looked up): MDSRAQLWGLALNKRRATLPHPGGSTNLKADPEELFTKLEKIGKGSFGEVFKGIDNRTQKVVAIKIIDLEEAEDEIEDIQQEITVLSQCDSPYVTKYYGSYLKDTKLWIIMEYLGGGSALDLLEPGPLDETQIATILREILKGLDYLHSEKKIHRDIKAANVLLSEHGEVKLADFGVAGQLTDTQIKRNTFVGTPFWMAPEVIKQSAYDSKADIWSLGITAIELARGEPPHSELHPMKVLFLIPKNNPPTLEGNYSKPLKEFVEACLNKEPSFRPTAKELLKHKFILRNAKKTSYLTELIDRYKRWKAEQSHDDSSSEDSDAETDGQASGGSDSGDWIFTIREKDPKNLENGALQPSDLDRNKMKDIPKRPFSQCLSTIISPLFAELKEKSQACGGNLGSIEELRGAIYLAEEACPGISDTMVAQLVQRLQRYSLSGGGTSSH

STK25 (human) = STK25 (human) (UniProt O00506)
[3] = biological target: TYK2 JH1 catalytic (human) (UniProt P29597)
WNK2 (human) = WNK2 (human) (UniProt Q9Y3S1)
ZAP70 (human) = ZAP70 (human) (UniProt P43403)

With `COc1ccc2c(c1)c(C1=C(c3c[nH]c4ccccc34)C(=O)NC1=O)cn2CCCN(C)C` the residual activity (ABL2 (human)) was 77.7%, the residual activity (ACVRL1 (human)) was 87.8% and the residual activity (AKT1 (human)) was 99%. The residual activity (BRSK1 (human)) was 81.9%, the residual activity (CAMK2A (human)) was 102% and the residual activity (CAMK2B (human)) was 89.9%. It also gave a residual activity (CDK2 CCNA2 (human)) of 112%, a residual activity (CLK1 (human)) of 48.2% and a residual activity (DSTYK (human)) of 82.8%. It also gave a residual activity (DYRK2 (human)) of 92.4%, a residual activity (DYRK4 (human)) of 97.3% and a residual activity (FGFR1 (human)) of 59%. It also gave a residual activity (FGFR3 (human)) of 87.5%, a residual activity [1] of 23.6% and a residual activity (FRK (human)) of 91.3%. It also gave a residual activity (FYN (human)) of 110%, a residual activity (GRK7 (human)) of 106% and a residual activity (ITK (human)) of 70.4%. For the same compound, the residual activity [2] was 91.6%, the residual activity (MAP3K5 (human)) was 95.1% and the residual activity (MAP4K5 (human)) was 27.7%. For the same compound, the residual activity (MAPK14 (human)) was 103%, the residual activity (MAPK3 (human)) was 93% and the residual activity (MAPK8 (human)) was 80%. For the same compound, the residual activity (MERTK (human)) was 84%, the residual activity (MINK1 (human)) was 78.6% and the residual activity (NEK11 (human)) was 91.6%. For the same compound, the residual activity (NEK2 (human)) was 99.7%, the residual activity (NUAK1 (human)) was 32.2% and the residual activity (PAK4 (human)) was 94.8%. It also gave a residual activity (PAK7 (human)) of 67.6%, a residual activity (PHKG1 (human)) of 66.4% and a residual activity (PTK2B (human)) of 104%. The residual activity (ROCK2 (human)) was 89.2%, the residual activity (RPS6KA6 KD1 KD2 (human)) was 4.52% and the residual activity (STK10 (human)) was 31.7%. It also gave a residual activity (STK11 (human)) of 101%, a residual activity (STK24 (human)) of 36.6% and a residual activity (STK25 (human)) of 55.7%. It also gave a residual activity [3] of 126%, a residual activity (WNK2 (human)) of 96.5% and a residual activity (ZAP70 (human)) of 90.3%.
